We go through one compound from publication PMC12662848 (Cancer Chemotherapy and Pharmacology, 2025).

One data set deals with BCL-2β mRNA. The experiment in a line: qPCR analysis of BCL-2β mRNA in healthy donor PBMCs treated ex vivo with ABT-199. The format is cell-based, human. Particulars: 1 µM; for BCL-2β mRNA levels: 2–4 h post-treatment. The procedure:
(§1) PBMCs from the trial patients or healthy donors were isolated from whole blood using Lymphoprep™ ([…] Technologies, Cat. #07801) following the manufacturer’s protocol. Whole blood was diluted 1:1 with room temperature phosphate-buffered saline (PBS) containing 2% fetal bovine serum (FBS) and carefully layered over an equal volume of Lymphoprep™ in a 50 mL conical tube. Samples were centrifuged at 800 × g for 20–30 min at room temperature with the brake off. The PBMC layer formed at the interface between the plasma and Lymphoprep™ was gently collected and transferred to a new tube. Cells were washed once with PBS containing 2% FBS by centrifugation at 300 × g for 10 min, and the final pellet was resuspended in DMEM media for downstream culture.
ABT-199 (S8048, Selleck Chemicals) was dissolved in DMSO. Healthy donor PBMCs were seeded at a density of 2 × 10⁶ cells per 60 mm dish and treated with 1 μM of ABT-199 for various time intervals (i.e., 2, 4, 8, and 24 h). At the end of each time point, PBMCs were harvested for protein and RNA extraction (below). All treatments were performed in 3–6 biological replicates and control samples were treated with vehicle (DMSO) only.
We developed a qPCR-based strategy to quantitatively analyze the BCL-2α/β mRNA levels in control and ABT-199 treated PBMCs (above). Briefly, total RNA was extracted using the PicoPure™ RNA Isolation Kit (Thermo Fisher Scientific, cat# KIT0204) with on-column DNase treatment. cDNA was synthesized from 750 ng RNA using SuperScript™ IV VILO™ Master Mix (Thermo Fisher Scientific, cat# 11,756,050). Quantitative PCR was performed using TaqMan Gene Expression Assays (Bio-Rad) with a FAM-conjugated custom probe specific for the BCL-2β isoform (5’-[…]-3’; Bio-Rad, part# 10,031,261). […] Reactions were run on the QuantStudio™ 6 Flex Real-Time PCR System (Applied Biosystems) under standard cycling conditions. Relative expression was calculated using the 2^–ΔΔCt method normalized to the 0-h (untreated) control. All conditions were tested in technical triplicates from 3–6 independent experiments.

Details of data set [1]: method as in PMID 34416076. Particulars: cited from earlier work.
The next data set relates to CLL. Particulars: cited from earlier work.
A further data set relates to BCL-2. The data set can be described thus: Automated Western blot (WES) analysis of BCL-2 protein in patient PBMCs. Type of data set: in vivo, human. As to the method: as §1
The BCL-2 protein levels in patient PBMCs were analyzed using PBMC lysate in the automated quantitative WES™ system (https://www.bio-techne.com/brands/proteinsimple), as we previously described. Briefly, the Simple Western WES™ immunoassays take place in capillaries and separate proteins by size as they migrate through stacking and separation matrix. The separated proteins are immobilized to the capillary wall via a proprietary, photoactivated capture chemistry. […] Quantitative results such as M.W, signal intensity (area), % area, and signal-to-noise for each immunodetected protein are presented in the results table automatically. […]
(Immunoblotting shows a protein as a band on a membrane.)

`CC1(C)CCC(CN2CCN(c3ccc(C(=O)NS(=O)(=O)c4ccc(NCC5CCOCC5)c([N+](=O)[O-])c4)c(Oc4cnc5[nH]ccc5c4)c3)CC2)=C(c2ccc(Cl)cc2)C1` [venetoclax]: the “BCL-2β mRNA levels” value in the data set on BCL-2β mRNA is recorded as “induced”. For the same compound, the “BCL-2β mRNA levels” value in the data set with BCL-2β mRNA (listed as Venetoclax) is listed as “increased significantly”. Also, the “BCL-2β mRNA” value in the data set with BCL-2β mRNA (≥ 24 h post treatment) is reported as “undetectable”. Also, in data set [1], the Permeability entry is on record as “low” and the Solubility entry is “low”. In the data set on CLL, the Average steady-state venetoclax concentration required for a 50% tumor shrinkage was 146 µg/L, the “Average steady-state venetoclax concentration that decreases lymphocyte counts by 50% from baseline” value is reported as 8.63 µg/L and the “Extension of PFS with a doubling of dose” value is 6 months. The “BCL-2β and BCL-2α protein in patients' PBMCs” value with BCL-2 (three 'responsive' patients (02–01, 02–07, 01–03), early cycles of treatment) is on record as “promoted the generation of BCL-2β with concordant reduction in BCL-2α protein”. For the same compound, in the data set with BCL-2 (three 'responsive' patients, late cycles and towards the end of treatment (EoT)), the “BCL-2α and BCL-2β protein in patients' PBMCs” value was “markedly reduced”.
